Source: ChEMBL document CHEMBL1201862, “PubChem BioAssay data set” (2004)
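Five compound concentrations were applied to cells in 96-well plates for 48 hours; endpoints were derived by simple linear interpolation of the resulting dose-response curve. At the GI50, growth is halved.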 Activity calls are given as the source filed them. Cut-off read from the data, not from the text of the source: active = GI50 up to about 1.1 µM and inactive = higher. Non-standard residues stand in square brackets, D forms with d. Residues, ends and D or L forms follow the SMILES beside them. *: point of attachment. Phe(4-NO2) = N[CH](Cc1ccc([N+](=O)[O-])cc1)C(=O)O; Boc = CC(C)(C)OC(=O)*

What was measured:
Assay in all cases: NCI-60 cell line screen, 48 h
HCC 2998 = tested on: HCC 2998
SK-MEL-28 = tested on: SK-MEL-28
SN12C = tested on: SN12C
TK-10 = tested on: TK-10
ACHN = tested on: ACHN
CAKI-1 = tested on: CAKI-1
SF-295 = tested on: SF-295
SK-OV-3 = tested on: SK-OV-3
SF-268 = tested on: SF-268
MOLT-4 = tested on: MOLT-4
RPMI-8226 = tested on: RPMI-8226
SK-MEL-5 = tested on: SK-MEL-5
RXF 393 = tested on: RXF 393
HCT-15 = tested on: HCT-15
SNB-75 = tested on: SNB-75
SF-539 = tested on: SF-539
SNB-19 = tested on: SNB-19
EKVX = tested on: EKVX
NCI-H23 = tested on: NCI-H23
HT-29 = tested on: HT-29

With `NC(S)=Nc1cc(Cl)ccc1Cl` the GI50 (HCC 2998) was > 100 µM (inactive), the GI50 (SK-MEL-28) was > 100 µM (inactive) and the GI50 (SN12C) was > 100 µM (inactive). For the same compound, the GI50 (TK-10) was > 100 µM (inactive), the GI50 (ACHN) was > 100 µM (inactive) and the GI50 (CAKI-1) was > 100 µM (inactive). The GI50 (SF-295) was > 100 µM (inactive), the GI50 (SK-OV-3) was > 100 µM (inactive) and the GI50 (SF-268) was > 100 µM (inactive). For the same compound, the GI50 (MOLT-4) was > 100 µM (inactive), the GI50 (RPMI-8226) was > 100 µM (inactive) and the GI50 (SK-MEL-5) was > 100 µM (inactive). The GI50 (RXF 393) was 94 µM (inactive), the GI50 (HCT-15) was > 100 µM and the GI50 (SNB-75) was 55.7 µM (inactive). For the same compound, the GI50 (SF-539) was > 100 µM (inactive), the GI50 (SNB-19) was > 100 µM (inactive) and the GI50 (EKVX) was > 100 µM (inactive). For the same compound, the GI50 (NCI-H23) was > 100 µM (inactive) and the GI50 (HT-29) was > 100 µM (inactive).
`COc1ccc(OC)c(C(=O)/C=C/c2cc(O)c(O)cc2F)c1` was tested, and the GI50 (HCC 2998) was 0.538 µM (active), the GI50 (SK-MEL-28) was 1.85 µM (inactive) and the GI50 (SN12C) was 0.417 µM (active). The GI50 (TK-10) was 6.58 µM (inactive), the GI50 (ACHN) was 2.27 µM (inactive) and the GI50 (CAKI-1) was 4.71 µM (inactive). The GI50 (SF-295) was 1.33 µM (inactive), the GI50 (SK-OV-3) was 3.35 µM (inactive) and the GI50 (SF-268) was 0.643 µM (active). For the same compound, the GI50 (MOLT-4) was 0.321 µM (active), the GI50 (RPMI-8226) was 0.678 µM (active) and the GI50 (SK-MEL-5) was 0.558 µM (active). For the same compound, the GI50 (RXF 393) was 1.37 µM (inactive), the GI50 (HCT-15) was 0.076 µM and the GI50 (SNB-75) was 0.442 µM (active). For the same compound, the GI50 (SF-539) was 0.258 µM (active), the GI50 (SNB-19) was 0.619 µM (active) and the GI50 (EKVX) was 8.04 µM (inactive). The GI50 (NCI-H23) was 0.535 µM (active) and the GI50 (HT-29) was 7.14 µM (inactive).
For `N#CC1=C(N)C(C#N)(C#N)C(c2ccc(F)cc2)C=C1C1CC1` (centres undefined), the GI50 (HCC 2998) was 12.8 µM (inactive), the GI50 (SK-MEL-28) was 12.4 µM (inactive) and the GI50 (SN12C) was 2.72 µM (inactive). For the same compound, the GI50 (TK-10) was 15.5 µM (inactive), the GI50 (ACHN) was 12.9 µM (inactive) and the GI50 (CAKI-1) was 15 µM (inactive). For the same compound, the GI50 (SF-295) was 11.2 µM (inactive), the GI50 (SK-OV-3) was 8.93 µM (inactive) and the GI50 (SF-268) was 4.81 µM (inactive). The GI50 (MOLT-4) was 4.81 µM (inactive), the GI50 (RPMI-8226) was 7.05 µM (inactive) and the GI50 (SK-MEL-5) was 4.46 µM (inactive). The GI50 (RXF 393) was 5.96 µM (inactive), the GI50 (HCT-15) was 9.77 µM and the GI50 (SNB-75) was 6 µM (inactive). The GI50 (SF-539) was 0.597 µM (active), the GI50 (SNB-19) was 13.2 µM (inactive) and the GI50 (EKVX) was 17.6 µM (inactive). For the same compound, the GI50 (NCI-H23) was 4.22 µM (inactive) and the GI50 (HT-29) was 6.12 µM (inactive).
For `[O-][S+]1c2ccccc2NC(c2ccc3ccccc3c2)CC1c1ccccc1` (centres undefined), the GI50 (HCC 2998) was 17.8 µM (inactive), the GI50 (SK-MEL-28) was 35.2 µM (inactive) and the GI50 (SN12C) was 32.6 µM (inactive). For the same compound, the GI50 (TK-10) was 35.4 µM (inactive), the GI50 (ACHN) was 20.8 µM (inactive) and the GI50 (CAKI-1) was 26.8 µM (inactive). For the same compound, the GI50 (SF-295) was 19.1 µM (inactive), the GI50 (SK-OV-3) was 99.1 µM (inactive) and the GI50 (SF-268) was 36.4 µM (inactive). For the same compound, the GI50 (MOLT-4) was 24 µM (inactive), the GI50 (RPMI-8226) was 21.6 µM (inactive) and the GI50 (SK-MEL-5) was 17.5 µM (inactive). For the same compound, the GI50 (RXF 393) was 14.8 µM (inactive), the GI50 (HCT-15) was 22.3 µM and the GI50 (SNB-75) was 24.8 µM (inactive). The GI50 (SF-539) was 20 µM (inactive), the GI50 (SNB-19) was 30.6 µM (inactive) and the GI50 (EKVX) was 26.6 µM (inactive). The GI50 (NCI-H23) was 16.7 µM (inactive) and the GI50 (HT-29) was 22.3 µM (inactive).
`CN1C(=O)[C@@H]2[C@@H]3c4ccccc4N[C@@H]3c3[nH]c4ccccc4c3[C@@H]2C1=O` was tested, and the GI50 (HCC 2998) was 18.2 µM (inactive), the GI50 (SK-MEL-28) was 24.5 µM (inactive) and the GI50 (SN12C) was 29.5 µM (inactive). The GI50 (TK-10) was 23.8 µM (inactive), the GI50 (ACHN) was 18.5 µM (inactive) and the GI50 (CAKI-1) was 33.2 µM (inactive). For the same compound, the GI50 (SF-295) was 18.6 µM (inactive), the GI50 (SK-OV-3) was 26.1 µM (inactive) and the GI50 (SF-268) was 32.6 µM (inactive). For the same compound, the GI50 (MOLT-4) was 19.1 µM (inactive), the GI50 (RPMI-8226) was 18.7 µM (inactive) and the GI50 (SK-MEL-5) was 12.5 µM (inactive). The GI50 (RXF 393) was 25 µM (inactive), the GI50 (HCT-15) was 18.8 µM and the GI50 (SNB-75) was 31.6 µM (inactive). The GI50 (SF-539) was 19 µM (inactive), the GI50 (SNB-19) was 29.6 µM (inactive) and the GI50 (EKVX) was 27.1 µM (inactive). The GI50 (NCI-H23) was 13.9 µM (inactive) and the GI50 (HT-29) was 36.1 µM (inactive).
`CN(C)c1ccc(C2ON=C(c3ccccc3)N2C23CC4CC(CC(C4)C2)C3)cc1` (centres undefined) was tested, and the GI50 (HCC 2998) was > 10 µM (inactive), the GI50 (SK-MEL-28) was > 10 µM (inactive) and the GI50 (SN12C) was > 10 µM (inactive). For the same compound, the GI50 (TK-10) was > 10 µM (inactive), the GI50 (ACHN) was > 10 µM (inactive) and the GI50 (CAKI-1) was > 10 µM (inactive). For the same compound, the GI50 (SF-295) was > 10 µM (inactive), the GI50 (SK-OV-3) was > 10 µM (inactive) and the GI50 (SF-268) was > 10 µM (inactive). For the same compound, the GI50 (MOLT-4) was 5.87 µM (inactive), the GI50 (RPMI-8226) was > 10 µM (inactive) and the GI50 (SK-MEL-5) was > 10 µM (inactive). The GI50 (RXF 393) was > 10 µM (inactive), the GI50 (HCT-15) was > 10 µM and the GI50 (SNB-75) was > 10 µM (inactive). For the same compound, the GI50 (SF-539) was > 10 µM (inactive), the GI50 (SNB-19) was > 10 µM (inactive) and the GI50 (EKVX) was > 10 µM (inactive). For the same compound, the GI50 (NCI-H23) was > 10 µM (inactive) and the GI50 (HT-29) was > 10 µM (inactive).
For `O=C(/C=C/c1ccc(O)c(O)c1)O[C@H]1CCCC[C@@H]1OC(=O)/C=C/c1ccc(O)c(O)c1`, the GI50 (HCC 2998) was 11.2 µM (inactive), the GI50 (SK-MEL-28) was 15.8 µM (inactive) and the GI50 (SN12C) was 13.6 µM (inactive). For the same compound, the GI50 (TK-10) was 14.9 µM (inactive), the GI50 (ACHN) was 7.98 µM (inactive) and the GI50 (CAKI-1) was 7.48 µM (inactive). For the same compound, the GI50 (SF-295) was 12.9 µM (inactive), the GI50 (SK-OV-3) was 15.8 µM (inactive) and the GI50 (SF-268) was 11.6 µM (inactive). For the same compound, the GI50 (MOLT-4) was 3.85 µM (inactive), the GI50 (RPMI-8226) was 9.18 µM (inactive) and the GI50 (SK-MEL-5) was 6.04 µM (inactive). For the same compound, the GI50 (RXF 393) was 10.5 µM (inactive), the GI50 (HCT-15) was 6.73 µM and the GI50 (SNB-75) was 17.8 µM (inactive). For the same compound, the GI50 (SF-539) was 11.1 µM (inactive), the GI50 (SNB-19) was 12.3 µM (inactive) and the GI50 (EKVX) was 20.6 µM (inactive). For the same compound, the GI50 (NCI-H23) was 13.6 µM (inactive).
`COC(=O)CCC(NC(=O)OC(C)(C)C)C(=O)NC(Cc1ccc([N+](=O)[O-])cc1)C(=O)NC(CCC(=O)OC)C(=O)OC` (centres undefined) (Boc-Glu(OMe)-[Phe(4-NO2)]-Glu(OMe)-OMe; configuration not given here) was tested, and the GI50 (HCC 2998) was > 100 µM (inactive), the GI50 (SK-MEL-28) was > 100 µM (inactive) and the GI50 (SN12C) was 51.9 µM (inactive). The GI50 (TK-10) was > 100 µM (inactive), the GI50 (ACHN) was > 100 µM (inactive) and the GI50 (CAKI-1) was > 100 µM (inactive). The GI50 (SF-295) was > 100 µM (inactive), the GI50 (SK-OV-3) was > 100 µM (inactive) and the GI50 (SF-268) was > 100 µM (inactive). For the same compound, the GI50 (MOLT-4) was 24.9 µM (inactive), the GI50 (RPMI-8226) was 27 µM (inactive) and the GI50 (SK-MEL-5) was > 100 µM (inactive). The GI50 (RXF 393) was > 100 µM (inactive), the GI50 (HCT-15) was > 100 µM and the GI50 (SNB-75) was 33.1 µM (inactive). For the same compound, the GI50 (SF-539) was 43.5 µM (inactive), the GI50 (SNB-19) was > 100 µM (inactive) and the GI50 (EKVX) was > 100 µM (inactive). For the same compound, the GI50 (NCI-H23) was > 100 µM (inactive) and the GI50 (HT-29) was 87.3 µM (inactive).
